“Also recorded” adds a separate entry of the source.
Legend:
[1] = system: PCP-induced hyperactivity; assay: Phencyclidine (PCP)-induced hyperlocomotion in mice; assay type: in vivo; conditions: test compound ip 30 minutes before phencyclidine 2.0 mg/kg sc, FIG. 4
Experimental: (v) Assessment of Effects on Psychostimulant-Induced Hyperlocomotion in Mice
In humans, phencyclidine (PCP) is known to produce a syndrome of behavioral effects which have many characteristics in common with schizophrenia. Therefore, antagonism of PCP effects might be evidence for antipsychotic efficacy of a compound.
Male NMRI mice (5-week old, Janvier, France) or C57BL/6J mice (6-week old, Janvier, France) were group housed and allowed ad-libitum access to food and water. A 12 hour light/dark cycle was imposed with lights-on period between 0530 and 1730 hours. All testing occurred between 700 and 1300 hours. All procedures were approved by Abbott Institutional Animal Care and Use Committee (USA) or Animal Welfare Officer (Germany) and were conducted in accordance with the National Institutes of Health Guide for Care and Use of Laboratory Animals guidelines and applicable national laws in the facilities accredited by the Association for the Assessment and Accreditation of Laboratory Animal Care.
On the day of experiment, animals were brought from the animal facility into the experimental room and were allowed to acclimatize for at least 30 minutes. Animals were then placed in the test cages for a habituation period of 60 minutes. […] The analyzed data were: fine movements, ambulations and total movements (fine+ambulations). […]

[2] = molecular target: T1, 5HT2C receptors (Homo sapiens, UniProt P28335); assay: Human 5-HT2C functional assay in 1321N1 cells (intracellular calcium, FLIPR); assay type: cell-based; parameters: expressed in transfected cells; host or cells: 1321N1 cells
T1 sequence (P28335 33-458): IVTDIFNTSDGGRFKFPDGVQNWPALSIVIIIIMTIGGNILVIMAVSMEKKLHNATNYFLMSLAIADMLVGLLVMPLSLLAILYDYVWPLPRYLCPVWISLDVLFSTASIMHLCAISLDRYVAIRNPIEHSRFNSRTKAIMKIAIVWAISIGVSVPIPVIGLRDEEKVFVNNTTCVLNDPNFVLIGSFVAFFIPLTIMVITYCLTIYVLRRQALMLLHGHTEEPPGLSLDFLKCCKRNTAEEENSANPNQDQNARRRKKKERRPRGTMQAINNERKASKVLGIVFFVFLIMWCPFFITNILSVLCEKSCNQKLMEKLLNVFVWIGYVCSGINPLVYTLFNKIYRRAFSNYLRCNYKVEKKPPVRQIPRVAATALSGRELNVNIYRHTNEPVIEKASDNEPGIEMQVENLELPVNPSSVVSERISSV
Procedure, shortened: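 Intracellular calcium in 1321N1 cells stably transfected with human 5-HT2C, serum-starved overnight, Fluo4 AM-loaded with 1% probenecid. Compounds at 10^−10 to 10^−5 M final, alone or with 10^−9 M serotonin; peak FLIPR response. EC50 from four-parameter logistic fit; Emax as % of serotonin effect.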

[3] = molecular target: T2, human serotonin 5-HT2c receptor (Homo sapiens, UniProt P28335); assay: Human 5-HT2C receptor radioligand binding assay (agonist site, [125I](±)DOI); conditions: membranes of transfected CHO cells, 0.2 nM [125I](±)DOI, 15 minutes at 37° C.
T2 construct: expressed in transfected cells; host or cells: CHO cells (membrane homogenate)
T2 sequence (P28335 33-458): T1 sequence (P28335 33-458)
Procedure, shortened: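 Affinity for the agonist site measured by radioligand binding in transfected CHO cells expressing the human receptor, using [125I](±)DOI.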

O=C1C[C@H]2CNCCN2c2ccccc2N1 [Example 2, (4aS)-1,2,3,4,4a,5-hexahydropyrazino[1,2-a][1,5]benzodiazepin-6(7H)-one]
PCP-induced hyperactivity [1]: attenuated PCP-induced hyperactivity significantly and in a dose dependent manner; also recorded: concentration-dependent effects of Example 2 attenuating the affect of phencyclidine (PCP)
EC50 ([2]; 1321N1 cells stably transfected, maximum calcium response, read-out: EC50 (μM), 5-HT2c Agonist Activity): 0.0192 µM
Emax ([2]; 1321N1 cells, percentage relative to the effect of serotonin, read-out: Emax (%), 5-HT2c Agonist Activity): 90%
Ki [3]: 0.016 µM

Source: US8546377B2 (AbbVie Inc., priority 2009, dated 2013)
